# Results taken from US20090104126A1, “Sulfamate Compounds and Uses Thereof” (Solvay Pharmaceuticals GmbH, priority 2007, published 2009).
# Read-outs that look alike come from different tables or passages of the source. Marks after values point to notes of the source that are not given here.
# B1: BDNF: BDNF (50 ng/ml, 3.7 nM) was included as positive control for neurite growth (protein, UniProt P23560 19-247, looked up)
# Neurotrophic factor BDNF …: APMKEANIRGQGGLAYPGVRTHGTLESVNGPKAGSRGLTSLADTFEHVIEELLDEDQKVRPNEENNKDADLYTSRVMLSSQVPLEPPLLFLLEEYKNYLDAANMSMRVRRHSDPARRGELSVCDSISEWVTAADKKTAVDMSGGTVTVLEKVPVSKGQLKQYFYETKCNPMGYTKEGCRGIDKRHWNSQCRTTQSYVRALTMDSKKRIGWRFIRIDTSCVCTLTIKRGR
# Experiments:
# [1] = biological target: T1, human carbonic anhydrase isoenzyme I from erythrocytes (Homo sapiens, UniProt P00915); assay: In vitro inhibition of human carbonic anhydrase isoenzyme I (dansylamide fluorescence); type: biochemical
# T1 construct: human carbonic anhydrase isoenzyme I from erythrocytes (Sigma-Aldrich); purchased Sigma-Aldrich; host or cells: human erythrocytes
# T1 sequence (P00915 whole entry): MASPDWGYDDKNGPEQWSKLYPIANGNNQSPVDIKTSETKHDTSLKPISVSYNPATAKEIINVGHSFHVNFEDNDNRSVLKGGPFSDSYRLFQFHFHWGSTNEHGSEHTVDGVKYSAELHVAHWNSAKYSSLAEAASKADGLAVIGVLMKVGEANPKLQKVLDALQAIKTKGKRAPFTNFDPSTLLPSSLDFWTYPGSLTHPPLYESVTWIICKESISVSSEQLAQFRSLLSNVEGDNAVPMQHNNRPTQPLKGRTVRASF
# Protocol: (§1) The test compounds of general Formula I in 96 well microplates were diluted with aqua bidest by using an automatic pipettor (CyBiWell®). From the different dilution plates, aliquots of 20 μl were transferred to the 96 well black assay plates with a pipetting station (Tecan Genesis®). In a second step, 148 μl of potassium phosphate buffer (20 mM, pH 7.4) was added, and as a third step, 20 μl of enzyme solution (1 μM human carbonic anhydrase isoenzyme I from erythrocytes (Sigma-Aldrich) or human carbonic anhydrase II from erythrocytes (Sigma Aldrich), or recombinant human carbonic anhydrase isoenzyme VB (R&D Systems), dissolved in potassium phosphate buffer) incubated for 60 min at room temperature and the fluorescence signal (Tecan Ultra® fluorescence reader; excitation wavelength: 280 nm; emission wavelength: 465 nm) read at the end of the preincubation period (FLU-1). After the preincubation time, 20 μl of aqueous dansylamide solution (1 mM dansylamide (Sigma-Aldrich), dissolved in hydrochloric acid) were added and the fluorescence signal read every 10 min for a period of 60 min at 37° C. For calculation, the fluorescence data of the time point 60 min (FLU-2) were used. The total volume of assay mixture amounted to 208 μl. […] Each microplate also contained blanks without compound and enzyme, controls without compound and ethoxzolamide (final concentration 5×10^-[…]) as validation standard compound. All data reflect single measurements. Data were expressed as % inhibition after calculation by the formula: [formula] […] Concentration action figures were calculated by applying the Prism algorithm for nonlinear regression (curve-fit): sigmoidal dose response with variable slope and the constraints: top: 100 and bottom 0.
# [2] = biological target: T2, human carbonic anhydrase II from erythrocytes (Homo sapiens, UniProt P00918); assay: In vitro inhibition of human carbonic anhydrase II (dansylamide fluorescence); type: biochemical
# T2 construct: human carbonic anhydrase II from erythrocytes (Sigma Aldrich); purchased Sigma Aldrich; host or cells: human erythrocytes
# Protocol: as §1
# [3] = biological target: T3, recombinant human carbonic anhydrase isoenzyme VB (Homo sapiens, UniProt Q9Y2D0); assay: In vitro inhibition of human carbonic anhydrase isoenzyme VB (dansylamide fluorescence); type: biochemical; conditions: final compound concentration 10 μM
# T3 construct: purchased R&D Systems
# T3 sequence (Q9Y2D0 34-317): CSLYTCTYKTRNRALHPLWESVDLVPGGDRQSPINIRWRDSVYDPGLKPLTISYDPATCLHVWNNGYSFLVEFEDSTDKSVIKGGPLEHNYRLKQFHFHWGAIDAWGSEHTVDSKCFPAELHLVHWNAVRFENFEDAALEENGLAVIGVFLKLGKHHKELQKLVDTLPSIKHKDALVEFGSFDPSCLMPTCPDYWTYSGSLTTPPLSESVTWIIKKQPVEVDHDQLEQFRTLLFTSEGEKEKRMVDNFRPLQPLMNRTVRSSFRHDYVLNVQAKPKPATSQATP
# Protocol: as §1
# mouse = conditions: for number of deaths after ECS: 20 mice per group, vehicle 1; for ECS intensity administered, mean ± s.e.m.: vehicle 36.5 ± 1.0
# Protocol: The method, which detects pro-convulsant or anti-convulsant activity, follows that described by Swinyard et al. (J. Pharmacol. Exp. Ther. 1952, 106, 319-330). Mice were administered ECS (rectangular current, 0.4 s, 50 Hz) via corneal electrodes connected to a constant current shock generator (Ugo Basile: Type 7801).
# A group wherein the vehicle is administered orally 60 minutes before the ECS serves a control. Diazepam (8 mg/kg p.o.), administered under the same experimental conditions, served as a positive anti-convulsive reference substance.
# If there were also no convulsions in animal no 2, then the current was further increase in the following animals (increases of 10 mA) until the first tonic convulsion was observed. Once the first tonic convulsion was observed, the intensity of ECS was decreased by 5 mA for the next animal and then the intensity was decreased or increased by 5 mA from animal to animal depending on whether or the previous animal convulsed or not. The minimum intensity given was 25 mA and the maximum intensity given was 95 mA. The electroconvulsive shock threshold was determined as the mean current administered in the last 20 mice.
# The number of deaths is also recorded approximately 30 minutes after the animal has been tested for convulsions. The test was performed blind. A positive percent change indicates an anticonvulsant effect. A negative percent change indicates a proconvulsant effect.
# Quantitative data were analyzed by comparing treated groups with vehicle control using unpaired Student's t tests. Quantal data were analyzed by comparing treated groups with vehicle control using Fisher's Exact Probability tests.
# male C57BI/6 mice = assay: Acute in vivo food intake test in mice; conditions: high caloric diet, 50 mg/kg/day oral gavage twice daily for 3 days, day 3
# Protocol: The studies were carried out in male C57BI/6 mice (n=12 per group). The mice were kept on an inverted 12/12 h light/dark cycle (lights on 22:00). They were allowed food (high caloric diet) and water ad libitum. Food intake and water consumption was measured daily. The test compound of general Formula I was suspended in 1% methyl hydroxyethyl cellulose in water and 0.1% (v/v) of poloxamer 188 and administered by oral gavage at a dose of 50 mg/kg/day twice daily for 3 days. One half of the dose was administered at 8.00-10.00 h; the remaining half of the dose was administered between 14.00-15.00 h.
# [4] = test system: embyronal hippocampal neurons; assay: Effect on neurite outgrowth from hippocampal neurons; type: cell-based, rat; conditions: for neurite mean length (% of control): 3 days exposure, two cultures normalized
# Protocol: Neurite outgrowth is an important parameter to evaluate the neurotrophic potency of a compound. […] The hippocampal neurons from pregnant Wistar female rats were dissociated by trypsinization for 30 min at 37° C. (trypsin-EDTA, Gibco) in presence of DNAse I (Roche, Meylan). The reaction was stopped by addition of medium of Eagle modified by Dulbecco (DMEM; Gibco) with 10% of fetal bovine serum (Gibco). The suspension was triturated with a 10-ml pipette and using a 21G needle syringe and centrifuged at 350×g for 10 min at room temperature. The resulting pellet was re-suspended in culture medium containing Neurobasal medium (Gibco) with 2% of B27 supplement (Gibco) and 2 mM of glutamine (Gibco). Viable cells were counted in a Neubauer cytometer using the trypan blue exclusion test (Sigma) and seeded on the basis of 30 000 cells per Petri dish (Nunc) precoated with poly-L-lysine (Sigma). Cells were allowed to adhere 2 h and maintained in a humidified incubator at 37° C. in 5% CO2-95% air atmosphere.
# After adhesion, vehicle and test compound at different concentrations (1 μM, 3 μM, 10 μM and 30 μM) were added to the medium. BDNF (50 ng/ml, 3.7 nM) was included as positive control for neurite growth. The test compound was tested in two independent cultures in parallel with control and BNDF cultures.
# After the 3 days exposure of the neurons to the test compounds, cultures were washed in phosphate-buffered saline (PBS, Gibco) and fixed using 2.5% glutaraldehyde in PBS. Several pictures (˜80) of cells with neurites without any branching were taken per condition using a digital camera (Coolpix 995; Nikon) fixed on the microscope (Nikon, objective 40×). Neurites were outlined on computer screen using imaging software (Image-Pro Plus, France), which automatically calculates the length.
# [5] = test system: STZ-diabetic male Sprague Dawley rats; assay: Diabetic-induced neuropathic pain: cold bath test (cold allodynia) in STZ rats; type: in vivo, rat; conditions: day 10
# [6] = test system: STZ-diabetic male Sprague Dawley rats; assay: Diabetic-induced neuropathic pain: warm plate (38° C.) test (warm allodynia) in STZ rats; type: in vivo, rat; conditions: day 10
# [7] = test system: embyronal hippocampal neurons; assay: Effect on neurite outgrowth from hippocampal neurons; type: cell-based, rat; conditions: BDNF 1.85 nM (positive control), 3 days exposure
# [8] = final compound concentration 0.1 μM
# [9] = final compound concentration 1 μM
molecule,measurement,setting,value
"CC1(C)[C@@H]2CC[C@@H](COS(N)(=O)=O)[C@H]1C2 [Compound 2, [(1R,2R,5R)-6,6-dimethylbicyclo[3.1.1]hept-2-yl]methyl-sulfamate]",inhibition at 0.1 µM,[1]; [8],70%
same,inhibition at 0.1 µM,[2]; [8],33%
same,inhibition at 10 µM,[3],75%
"CC1(C)[C@H]2CC[C@@H](COS(N)(=O)=O)[C@@H]1C2 [Compound 4, [(1S,2R,5S)-6,6-dimethylbicyclo[3.1.1]hept-2-yl]methylsulfamate]",% Inhibition,[1]; [9],80%
same,% Inhibition,[2]; [9],72%
same,% Inhibition,[3],53%
"CC1(C)[C@H]2CC[C@@H](CCOS(N)(=O)=O)[C@@H]1C2 [Compound 3, [(1S,2S,5S)-6,6-dimethylbicyclo[3.1.1]hept-2-yl]ethyl-sulfamate]",% Inhibition,[1]; [8],28%
same,% Inhibition,[2]; [8],15%
same,% Inhibition,[3],55%
(4S)-bicyclo[2.2.1]hept-5-en-2-ylmethylsulfamate [Compound 6],% Inhibition,[1]; [9],94%
same,% Inhibition,[2]; [9],76%
same,% Inhibition,[3],40%
"CN1C(=O)CN=C(c2ccccc2)c2cc(Cl)ccc21 [Diazepam, reference compound]",ECS intensity % change from control,mouse; 8 mg/kg p.o. −60 min,+124%
same,number of deaths after ECS,mouse; 8 mg/kg p.o. −60 min,0
same,"ECS intensity administered, mean ± s.e.m.",mouse; 8 mg/kg p.o. −60 min,81.8 ± 3.0 mA
"(1R,4S)-bicyclo[2.2.1]hept-2-yl-methylsulfamate [Compound 5]",% Inhibition,[1]; [9],91%
same,% Inhibition,[2]; [9],77%
same,% Inhibition,[3],41%
"CC1(C)[C@H]2CC[C@H](COS(N)(=O)=O)[C@@H]1C2 [Compound 1, [(1S,2S,5S)-6,6-dimethylbicyclo[3.1.1]hept-2-yl]methyl-sulfamate]",inhibition at 0.1 µM,[1]; [8],85%
same,inhibition at 0.1 µM,[2]; [8],56%
same,inhibition at 10 µM,[3],70%
same,food intake [% of control],male C57BI/6 mice,69.4% (day 3) % of control
same,neurite mean length (% of control),[4]; 1 μM,110.9 % of control
same,neurite mean length (% of control),[4]; 3 μM,108.9 % of control
same,neurite mean length (% of control),[4]; 10 μM,113.2 % of control
same,neurite mean length (% of control),[4]; 30 μM,114.5 % of control
same,number of deaths after ECS,mouse; 10 mg/kg p.o. −60 min,2
same,"ECS intensity administered, mean ± s.e.m.",mouse; 10 mg/kg p.o. −60 min,40.0 ± 1.2 mA
same,number of deaths after ECS,mouse; 30 mg/kg p.o. −60 min,0
same,"ECS intensity administered, mean ± s.e.m.",mouse; 30 mg/kg p.o. −60 min,43.5 ± 1.5 mA
same,number of deaths after ECS,mouse; 100 mg/kg p.o. −60 min,1
same,"ECS intensity administered, mean ± s.e.m.",mouse; 100 mg/kg p.o. −60 min,88.0 ± 2.1 mA
same,"% inhibition (compared to STZ/vehicle group), cold bath test",[5]; 10 mg/kg p.o. 1 h before test,62* %
same,"% inhibition (compared to STZ/vehicle group), cold bath test",[5]; 30 mg/kg p.o. 1 h before test,58* %
same,"% inhibition (compared to STZ/vehicle group), cold bath test",[5]; 50 mg/kg p.o. 1 h before test,72* %
same,"% inhibition (compared to STZ/vehicle group), warm plate test",[6]; 10 mg/kg p.o. 1 h before test,53%
same,"% inhibition (compared to STZ/vehicle group), warm plate test",[6]; 30 mg/kg p.o. 1 h before test,59* %
same,"% inhibition (compared to STZ/vehicle group), warm plate test",[6]; 50 mg/kg p.o. 1 h before test,64* %
B1,increase in neurite length normalized by mean control neurite length,"[4]; 50 ng/ml BDNF, both cultures normalized",16.4%
same,mean increase in neurite length,"[4]; 50 ng/ml BDNF, first culture",24.5 μm
same,neurite length (mean±SEM),"[4]; 50 ng/ml BDNF, first culture, n=79 (control 105.7±3.2)",131.6±3.1 μm
same,mean increase in neurite length,"[4]; 50 ng/ml BDNF, second culture",8.6 μm
same,neurite length (mean±SEM),"[4]; 50 ng/ml BDNF, second culture, n=82 (control 109.3±3.1)",118.7±2.8 μm
same,neurite mean length (% of control),[7],116.4 % of control
